From US4672055A, “Erythromycin salt with mucosecretolytic and fluidizing activity and pharmaceutical compositions thereof” (priority 1984, dated 1987)
In brackets after ≈: the same amount, converted by molar mass. Like-named read-outs stand apart in the source and are kept apart here.

Key:
[1] = Acute toxicity (LD50) in the mouse after single oral administration; format: in vivo, mouse (Swiss albine, female); conditions: in vivo, mortality at 14th day, read-out: DL50 (LD50)
Protocol: (§1) Method for studying LD50 in the mouse after a single oral administration.
(§2) Groups of 10 Swiss albine, female, adult (g.20-22) mice, fasting from the evening preceding the test, are treated by oral way with various doses (4 to 5) of the test drugs, dissolved/suspended in 1% hydroxyethyl cellulose (volume administered : 20ml/kg). Thereafter, the animals are fed again. (Morini MIL fodder for mice)
(§3) The 50% lethal dose (LD50) is calculated by the method of Litchfield, J.T. and Wilcoxon, F. (J. Pharmacol. 96,99-113,1949) by the mortality data as obtained at 14th day after the drug treatment.

[2] = system: mucoproduction (bronchial secretion); assay: Bronchosecretagogue activity (mucoproduction) in the rabbit; format: in vivo, rabbit (male brown); conditions: oral, percent increase of mucoproduction, period II vs I, based on d,l-trans-sobrerol taken equal to 100
Protocol: Method of mucoproduction in the rabbit according to Scuri R. et al, Boll Chim. Farm. 119, 181-7, 1980.
Male brown rabbits weighing 2.8-3.5 kg. are employed. To said animals, by surgical operation under anaesthesia, a T shaped tracheal cannula is applied, as described in the bibliographic reference mentioned above.
To the cannula, a container (a polyproylene 2 ml test tube) is applied for periodical collection of the bronchial secretion. The study of mucoproduction started at the fourth day after the operation, is divided into two 4 hour periods for collecting and measuring the mucus, and exactly from 8:30 to 12:30 (I) and from 12:30 to 16:30 (II).
The activity of each drug is tested by administering the same by oesophageal way (os) at the begining of the II period and by evaluating the percent increase of mucoproduction (weight of the mucus as collected) over the II period as compared to the I period.
The activity of the compound of formula (I), of the present invention, is based on the d,1-trans-sobrerol one, taken equal to 100.

bronchial mucus = assay: Fluidizing "in vivo" activity of bronchial mucus of bronchitic rabbits (viscosity); parameters: species or system rabbit (male); conditions: oral, based on d,l-sobrerol taken equal to 100
Protocol: A method for studying viscosity of bronchial mucus of a bronchitic rabbit (R. Scuri et al-Il Farmaco, Ed.Pr. 36, 36-48, 1981).
Male rabbits weighing […], made bronchitic by sulphuric acid aerosol treatment according to the method of Cantarelli (G. Cantarelli et al--Il Farmaco, Ed. Pr. 34, 393-416, 1979), are treated with the test drugs and the bronchial mucus is collected by means of a tracheal cannula according to the procedure of R. Scuri (R. Scuri et al -Boll. Chim. Farm. 119, 181-7, 1980). Viscosity of the mucus as withdrawn is studied by using a Contraves RM16 micro viscosimeter and it is recorded by a Rheomat 15T -FC apparatus.
The activity of the compound of formula (I) of this invention is based on the one of d,1-sobrerol, taken equal to 100.

Esch. coli 418 = assay: Antimicrobic in vitro activity, MIC; format: cell-based; conditions: Mueller-Hinton medium
Protocol: (§4) Microbiologic "in vitro" tests. Tests carried out in order to evaluate the values of the Minimum Inhibiting Concentrations (MIC) are performed by the method of the substrate treated with scalar drugs concentrations, by the "multi-points inoculator" technique.
(§5) As test strains, bacteria from clinical isolation and from international culture collections are tested.
(§6) In the tables, the MIC values (mcg/ml), as obtained employing the Mueller-Hinton medium , are reported.
(§7) The MIC values in the tables refer to readings after 24 and 48 hours at 37° C.

Proteus vulg. X 19 = assay: Antimicrobic in vitro activity, MIC; format: cell-based
Protocol: as §4, §5, §6, §7

Staph. aureus 6538 = assay: Antimicrobic in vitro activity, MIC; format: cell-based; conditions: Mueller-Hinton medium
Protocol: as §4, §5, §6, §7
(§8) The strains with 4 figures are of ATCC.

Staph. aureus 14154 = assay: Antimicrobic in vitro activity, MIC; format: cell-based; conditions: Mueller-Hinton medium
Protocol: as §4, §5, §6, §7, §8

Strept. faecalis 8043 = assay: Antimicrobic in vitro activity, MIC; format: cell-based; conditions: Mueller-Hinton medium
Protocol: as §4, §5, §6, §7, §8

Cand. albicans clin = assay: Antimicrobic in vitro activity, MIC; format: cell-based; conditions: Mueller-Hinton medium
Protocol: as §4, §5, §6, §7
(§9) clin = clinic isolation

[3] = system: Pseud. aerug. clin (strain 12); assay: Antimicrobic in vitro activity, MIC; format: cell-based; conditions: Mueller-Hinton medium, 24 hours at 37° C.
Protocol: as §4, §5, §6, §7, §9

Strept. faecalis clin = assay: Antimicrobic in vitro activity, MIC; format: cell-based; conditions: Mueller-Hinton medium
Protocol: as §4, §5, §6, §7, §9

[4] = system: Pseud. aerug. clin (strain 10); assay: Antimicrobic in vitro activity, MIC; format: cell-based; conditions: Mueller-Hinton medium, 24 hours at 37° C.
Protocol: as §4, §5, §6, §7, §9

[5] = system: Pseud. aerug. clin (strain 11); assay: Antimicrobic in vitro activity, MIC; format: cell-based; conditions: Mueller-Hinton medium
Protocol: as §4, §5, §6, §7, §9

[6] = system: Staph. epiderm clin (strain 4); assay: Antimicrobic in vitro activity, MIC; format: cell-based; conditions: Mueller-Hinton medium
Protocol: as §4, §5, §6, §7, §9

Serr. marcescens clin = assay: Antimicrobic in vitro activity, MIC; format: cell-based
Protocol: as §4, §5, §6, §7, §9

mouse = assay: Acute toxicity (LD50) in the mouse after single oral administration; format: in vivo, mouse (Swiss albine, female); conditions: mortality at 14th day
Protocol: as §1, §2, §3

[7] = Pharmacokinetics: plasma levels of erythromycin after oral administration; format: in vivo, Wistar rats
Protocol: (§10) Two groups of Wistar rats (180-270g.) are utilized. To the first group the compound of formula (I) of this invention, orally (transoesophageal intubation) at the dose of 800mg/kg, is administered, whilst to the second, again by the oral way, 585 mg/kg of erythromycin are administered.
(§11) Before treatment the rats were fasting for about 15 hours and were allowed to drink ad libitum. In both cases at 0.5 h; 1h;1.5 h; 2h; 3h; 4h; 6h from administration 5 rats/time are sacrificed. The blood as collected in test tubes containing sodium heparin is centrifuged and the plasma so obtained is utilized for the quantitative analysis of erythromycin by means of the micorbiologic standard method, using Staphylococcus aureus as a test organisum (P.G. Welling and W.A. Craig, J. Pharm. Sci. 67, 1057 (1978)).

[8] = Pharmacokinetics: erythromycin in lungs after oral administration; format: in vivo; conditions: Wistar rats, single oral 800 mg/kg vs erythromycin 585 mg/kg; lung homogenate
Protocol: as §10, §11
From the same rats, in similar manner, the lungs are withdrawn and, after homogenizing the tissue, the erythromycin rates are evaluated.

[9] = 24 hours at 37° C., read-out: MIC
[10] = 48 hours at 37° C., read-out: MIC
[11] = Mueller-Hinton medium, 24 hours at 37° C.
[12] = Mueller-Hinton medium, 48 hours at 37° C.

In the case of `CC1=CC[C@@H](C(C)(C)O)C[C@@H]1O` (relative stereo) [d,l-trans-sobrerol], the LD50 at 336 h [1] is reported as 2340 mg/kg, the “Bronchosecretagogue activity (relative to d,l-trans-sobrerol = 100)” value [2] is reported as 100 and the “Fluidizing in vivo activity (relative to d,l-sobrerol = 100)” value (bronchial mucus) is reported as 100.

With `CC[C@H]1OC(=O)[C@H](C)[C@@H](O[C@H]2C[C@@](C)(OC)[C@@H](O)[C@H](C)O2)[C@H](C)[C@@H](O[C@@H]2O[C@H](C)C[C@H](N(C)C)[C@H]2O)[C@](C)(O)C[C@@H](C)C(=O)[C@H](C)[C@@H](O)[C@]1(C)O` [erythromycin] the LD50 at 336 h [1] was > 5000 mg/kg, the MIC (Esch. coli 418; Escherichia coli, 418, 24 hours at 37° C., read-out: MIC) was 25 µg/mL (≈ 34.1 µM) and the MIC (Esch. coli 418; Escherichia coli, 418, 48 hours at 37° C., read-out: MIC) was 25 µg/mL (≈ 34.1 µM). The MIC (Proteus vulg. X 19; 24 h) was 2.5 µg/mL (≈ 3.41 µM), the MIC (Proteus vulg. X 19; 48 h) was 2.5 µg/mL (≈ 3.41 µM) and the “Bronchosecretagogue activity (relative to d,l-trans-sobrerol = 100)” value [2] was 0. For the same compound, the MIC (Staph. aureus 6538; Staphylococcus aureus, 6538, 24 hours at 37° C., read-out: MIC) was 10 µg/mL (≈ 13.6 µM), the MIC (Staph. aureus 6538; Staphylococcus aureus, 6538, 48 hours at 37° C., read-out: MIC) was 10 µg/mL (≈ 13.6 µM) and the MIC (Staph. aureus 14154; Staphylococcus aureus, 14154, 24 hours at 37° C., read-out: MIC) was 10 µg/mL (≈ 13.6 µM). The MIC (Staph. aureus 14154; Staphylococcus aureus, 14154, 48 hours at 37° C., read-out: MIC) was 10 µg/mL (≈ 13.6 µM), the MIC (Strept. faecalis 8043; Enterococcus faecalis, 8043, 24 hours at 37° C., read-out: MIC) was 0.3 µg/mL (≈ 0.409 µM) and the MIC (Strept. faecalis 8043; Enterococcus faecalis, 8043, 48 hours at 37° C., read-out: MIC) was 0.3 µg/mL (≈ 0.409 µM). The MIC (Cand. albicans clin; Candida albicans, 24 hours at 37° C., read-out: MIC) was 100 µg/mL (≈ 136 µM), the MIC (Cand. albicans clin; Candida albicans, 48 hours at 37° C., read-out: MIC) was 100 µg/mL (≈ 136 µM) and the MIC ([3]; read-out: MIC) was > 100 µg/mL. The MIC (Strept. faecalis clin; Enterococcus faecalis, 24 hours at 37° C., read-out: MIC) was 0.3 µg/mL (≈ 0.409 µM), the MIC (Strept. faecalis clin; Enterococcus faecalis, 48 hours at 37° C., read-out: MIC) was 0.3 µg/mL (≈ 0.409 µM) and the MIC ([4]; read-out: MIC) was > 100 µg/mL. For the same compound, the MIC [5, 9] was 100 µg/mL (≈ 136 µM), the MIC [5, 10] was 100 µg/mL (≈ 136 µM) and the MIC [6, 9] was 10 µg/mL (≈ 13.6 µM). The MIC [6, 10] was 10 µg/mL (≈ 13.6 µM), the MIC (Serr. marcescens clin; Serratia marcescens, 24 h) was 45 µg/mL (≈ 61.3 µM) and the MIC (Serr. marcescens clin; Serratia marcescens, 48 h) was 50 µg/mL (≈ 68.1 µM). The “Fluidizing in vivo activity (relative to d,l-sobrerol = 100)” value (bronchial mucus) was 0.

In the case of “Erythromycinsalt of 5-(3-carboxy-1-oxopropoxy)-α, α 4-trimethyl-3-cyclohexene-1-methanol [CO/1311]”, the “DL50 (LD50)” value (mouse) is reported as 4322.3 mg/kg, the “plasmatic levels of erythromycin vs equidose erythromycin administration” value ([7]; Wistar rats, single oral 800 mg/kg vs erythromycin 585 mg/kg, 0.5-6 h, microbiologic assay) is reported as “significantly higher” and the “bioavailability of erythromycin vs the antibiotic administered as such” value ([7]; rat, in vivo) is reported as “improved bioavailability”. It also gave an MIC (Esch. coli 418; 24 hours at 37° C.) of 25 µg/mL, an MIC (Esch. coli 418; 48 hours at 37° C.) of 25 µg/mL and an MIC (Proteus vulg. X 19; [11]) of 2.5 µg/mL. The MIC (Proteus vulg. X 19; [12]) was 2.5 µg/mL, the “Bronchosecretagogue activity (relative to d,l-trans-sobrerol = 100)” value [2] was 140 and the MIC (Staph. aureus 6538; 24 hours at 37° C.) was 10 µg/mL. It also gave an MIC (Staph. aureus 6538; 48 hours at 37° C.) of 10 µg/mL, an MIC (Staph. aureus 14154; 24 hours at 37° C.) of 10 µg/mL and an MIC (Staph. aureus 14154; 48 hours at 37° C.) of 10 µg/mL. For the same compound, the MIC (Strept. faecalis 8043; 24 hours at 37° C.) was 0.3 µg/mL, the MIC (Strept. faecalis 8043; 48 hours at 37° C.) was 0.3 µg/mL and the MIC (Cand. albicans clin; 24 hours at 37° C.) was 100 µg/mL. For the same compound, the MIC (Cand. albicans clin; 48 hours at 37° C.) was 100 µg/mL, the MIC [3] was > 100 µg/mL and the MIC (Strept. faecalis clin; 24 hours at 37° C.) was 0.4 µg/mL. For the same compound, the MIC (Strept. faecalis clin; 48 hours at 37° C.) was 0.4 µg/mL, the MIC [4] was > 100 µg/mL and the MIC ([5]; 24 hours at 37° C.) was 100 µg/mL. The MIC ([5]; 48 hours at 37° C.) was 100 µg/mL, the MIC ([6]; 24 hours at 37° C.) was 10 µg/mL and the MIC ([6]; 48 hours at 37° C.) was 10 µg/mL. For the same compound, the MIC (Serr. marcescens clin; [11]) was 50 µg/mL, the MIC (Serr. marcescens clin; [12]) was 50 µg/mL and the “Fluidizing in vivo activity (relative to d,l-sobrerol = 100)” value (bronchial mucus) was 132. For the same compound, the “erythromycin rates in lungs vs erythromycin administration” value [8] was “significantly higher”.
